In US20110294876A1, “CYCLOHEXYL CARBAMATE COMPOUNDS AS ANTI-AGEING ACTIVES” (SYMRISE AG, priority 2010, published 2011) one finds Extension of lifespan and Relative proteasome activity data, which are given here for two compounds.

One assay relates to fish. The following applies: cited from earlier work.
The test system of a further assay is yeast. Particulars: cited from earlier work.
The target in the next assay is isolated 20S proteasome (Homo sapiens, UniProt P28074). Put plainly: Proteasome activity using isolated proteasome (chymotrypsin-like activity, MCA liberation). The assay is classed as biochemical. Also on record: unit of the concentration uncertain. The following applies: relative to DMSO control (0 (unit uncertain) = 100%), mean of 3 independent tests. The text has this:
The method used herein to investigate the proteasome stimulating activity of a substance is based on the measurement of the 20S proteasome core activity. To detect this activity, the isolated 20S proteasome reacts with an oligopeptide, which is bound to a fluorochrome. With its chymotrypsin-like proteolytic activity, the proteasome degrades the oligopeptide and liberates the fluorochrome. For this assay 4-methyl-coumaryl-amide (MCA) was used as fluorochrome. Liberation of MCA correlates linearly with the proteasome activity. MCA was detected using an excitation of 360 nm and an emission of 460 nm.
For interpretation, the measured proteasome activities/intensities of fluorescence were compared with pure MCA standards at distinct concentrations.
Two different controls were used for each assay. One “ordinary” control (C) which consisted of isolated proteasome alone, and a DMSO-control (DC). DC was necessary because all substances were diluted in DMSO. Proteasome activity was calculated relative to DMSO control (0 mM).

Assay [1] relates to proteasome in HaCaT cell lysate. Put plainly: Proteasome activity using cell lysates of HaCaT cells (MCA liberation). The following applies: HaCaT cellular extracts, relative to DMSO control (0 (unit uncertain) = 100%), mean of 3 independent tests. Also on record: unit of the concentration uncertain. It counts as biochemical, human. As to the method:
To determine proteasome activity in cell lysate, human keratinocyte cell lines (HaCaT cells) were seeded out in Petri-dishes (area: 22.1 cm^2) and harvested when they reached confluence. Isolation of the pure cell lysate included cell washing, incubation and homogenization in lysis buffer (250 mM sucrose, 25 mM HEPES (4-(2-hydroxyethyl)-1-piperazineethanesulfonic acid), 10 mM MgCl2*6H2O, 1.3 mM EDTA) and final cell lysis with liquid nitrogen. Determination of proteasome activity is based on the liberation of MCA and the corresponding fluorescence like described above in example 3.1. Proteasome activity was calculated relative to DMSO control (0 mM).

Turning to `Oc1ccc(C=Cc2cc(O)cc(O)c2)cc1` [Resveratrol], the Extension of lifespan with fish is 60%; in the assay with yeast, 70%.

Regarding `CC(C)NC(=O)O[C@@H]1C[C@H](C)CC[C@H]1C(C)C` [BIO1272, Isopropyl-carbamic acid (1R,2S,5R)-2-isopropyl-5-methylcyclohexyl ester], the Relative proteasome activity is reported as 125% at isolated 20S proteasome (5 (unit uncertain)); 210% at isolated 20S proteasome (10 (unit uncertain)); 250% at isolated 20S proteasome (20 (unit uncertain)); 105% in assay [1] (5 (unit uncertain)); 120% in assay [1] (10 (unit uncertain)); 140% in assay [1] (20 (unit uncertain)).
